Test results reported in ChEMBL document CHEMBL1201862, “PubChem BioAssay data set” (2004).
Active and inactive are the calls of the source.

Experiments:
[1] = target: T1, RNA-binding protein pos-1 (Caenorhabditis elegans, UniProt G5EF15); assay: inhibitors of POS-1/mex-3 RNA binding, dose response, biochemical, fluorescence polarization (AID 1964);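 note: purified POS-1 fused to maltose binding protein made in E. coli; potency of compounds blocking POS-1 binding to fluorescent RNA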
T1 sequence (G5EF15 whole entry): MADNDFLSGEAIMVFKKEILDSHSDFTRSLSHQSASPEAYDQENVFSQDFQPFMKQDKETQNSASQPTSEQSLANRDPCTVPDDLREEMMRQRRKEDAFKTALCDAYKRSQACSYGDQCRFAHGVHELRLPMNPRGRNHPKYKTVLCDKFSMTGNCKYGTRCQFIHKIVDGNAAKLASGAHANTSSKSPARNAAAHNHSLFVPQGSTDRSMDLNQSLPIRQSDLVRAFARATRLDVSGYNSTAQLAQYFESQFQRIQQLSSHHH

[2] = target: Glyceraldehyde-3-phosphate dehydrogenase (Homo sapiens, UniProt P04406)
[3] = target: T2, Zinc finger protein mex-5 (Caenorhabditis elegans, UniProt Q9XUB2); assay: MEX-5/TCR-2 RNA interaction inhibitors, dose response, biochemical, C. elegans, fluorescence polarization (AID 1960)
T2 sequence (Q9XUB2 whole entry): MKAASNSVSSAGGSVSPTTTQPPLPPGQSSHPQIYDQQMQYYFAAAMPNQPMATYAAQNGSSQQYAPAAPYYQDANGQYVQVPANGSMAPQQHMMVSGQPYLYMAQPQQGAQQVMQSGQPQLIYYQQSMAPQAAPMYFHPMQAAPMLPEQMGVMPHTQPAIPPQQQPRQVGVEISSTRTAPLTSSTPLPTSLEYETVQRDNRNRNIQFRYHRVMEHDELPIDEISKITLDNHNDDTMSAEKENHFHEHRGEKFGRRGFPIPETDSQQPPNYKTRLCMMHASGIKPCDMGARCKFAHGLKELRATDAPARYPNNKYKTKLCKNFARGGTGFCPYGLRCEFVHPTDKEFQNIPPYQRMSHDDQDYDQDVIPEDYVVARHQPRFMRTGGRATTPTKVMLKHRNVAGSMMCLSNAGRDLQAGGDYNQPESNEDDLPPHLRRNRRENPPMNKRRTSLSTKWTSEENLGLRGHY

[4] = target: Heat shock cognate 71 kDa protein (Homo sapiens, UniProt P11142); assay: In Vitro Hsc70 Dose Response Fluorescence Polarization Assay. [Related pubchem assays: 1072 ]
[5] = target: T3, Estrogen receptor (Homo sapiens, UniProt P03372);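 note: potency for inhibiting coactivator peptide recruitment to the receptor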
T3 sequence (P03372 whole entry): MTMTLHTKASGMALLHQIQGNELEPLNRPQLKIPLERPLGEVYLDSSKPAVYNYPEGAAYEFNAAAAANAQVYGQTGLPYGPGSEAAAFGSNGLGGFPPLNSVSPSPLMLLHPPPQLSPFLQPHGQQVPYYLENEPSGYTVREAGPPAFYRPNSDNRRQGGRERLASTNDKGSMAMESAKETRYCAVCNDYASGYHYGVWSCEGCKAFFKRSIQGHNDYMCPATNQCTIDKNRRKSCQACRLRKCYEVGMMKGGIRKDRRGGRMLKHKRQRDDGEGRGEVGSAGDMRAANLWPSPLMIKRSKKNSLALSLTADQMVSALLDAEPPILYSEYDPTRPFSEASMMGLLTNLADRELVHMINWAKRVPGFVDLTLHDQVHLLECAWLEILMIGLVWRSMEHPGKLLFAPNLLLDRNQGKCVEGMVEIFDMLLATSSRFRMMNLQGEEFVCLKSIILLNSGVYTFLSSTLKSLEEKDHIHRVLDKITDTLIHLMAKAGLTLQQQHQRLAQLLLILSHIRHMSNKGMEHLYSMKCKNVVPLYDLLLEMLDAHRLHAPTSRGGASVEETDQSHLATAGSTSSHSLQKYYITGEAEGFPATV

[6] = target: Heat shock 70 kDa protein 1A (Homo sapiens, UniProt P0DMV8); assay: Hsp70 inhibitors, SAR follow-up, biochemical, fluorescence polarization (AID 1072)
[7] = target: Estrogen receptor beta (Homo sapiens, UniProt Q92731); assay: ERβ–SRC-3 coactivator interaction inhibitors, confirmation, orthogonal assay, biochemical, ELISA, streptavidin-HRP readout (AID 1060)
[8] = target: Induced myeloid leukemia cell differentiation protein Mcl-1 (Homo sapiens, UniProt Q07820); type: functional
[9] = inhibitors of firefly luciferase expression or activity, dose response, H4 neuroglioma cells, luminescence (AID 1990); type: functional, cell-based
[10] = test system: HEK293; assay: NOD1 signaling inhibitors, primary screen, cell-based, luminescence, uHTS (AID 1578); type: functional; details: Homo sapiens
[11] = test system: Streptococcus sp. 'group A'; assay: growth inhibition of control SK(-) GAS strain, dose response, counter-screen for streptokinase expression inhibitor project, luminescence, kanamycin, BacTiterGlo, confirmation (AID 1900); type: functional, organism-based
[12] = test system: HEK293; assay: cells; type: functional, cell-based; details: Homo sapiens
[13] = Luminescence Cell-Based Dose Response HTS to Identify Inhibitors of 5'UTR Stem-Loop Driven Prion Protein mRNA Translation in H4 Neuroglioblastoma Cells. [Related pubchem assays: 1827 (Project Summary), 1813 (Primary HTS)]; type: functional
[14] = inhibitors of SNCA 5'UTR-driven reporter translation, confirmation, H4 neuroglioma cells, luminescence (AID 1988); type: functional, cell-based
[15] = test system: HEK293; assay: cells; type: functional, cell-based; details: Homo sapiens; remark: listed apart in the source
[16] = target: Nucleotide-binding oligomerization domain-containing protein 2 (Homo sapiens, UniProt Q9HC29); assay: NOD2 signaling inhibitors, cell-based, luminescence, uHTS, HEK293 (AID 1566); type: functional
[17] = test system: HEK293; assay: NOD2 signaling inhibitors in MDP-stimulated cells, cell-based, uHTS, luminescence (AID 2001); type: functional; details: Homo sapiens
[18] = test system: HEK293; assay: cells; type: functional, cell-based; details: Homo sapiens; remark: listed apart in the source
[19] = test system: Streptococcus; assay: Group A Streptococcus viability loss, dose response, counter-screen for streptokinase expression inhibitor project, luminescence, BacTiterGlo (AID 1915); type: functional, organism-based;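 note: potency for reduction of bacterial viability or growth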
[20] = target: Melanin-concentrating hormone receptor 1 (Homo sapiens, UniProt Q99705); assay: Late-stage fluorescence-based counterscreen for antagonists of the G-protein coupled receptor 7 (GPR7): cell-based dose response assay to identify antagonists of the melanin-concentrating hormone receptor 1 (MCHR1). [Related pubchem assays (depositor defined):AID1861, AID1880, AID1952, AID2148, AID2251, AID2257, AID485339]; type: functional;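 note: stimulated with 30 nM MCH peptide agonist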
[21] = target: ORF 73 (Human herpesvirus 8, UniProt O40947); assay: inhibitors of C-LANA binding to LBS DNA, dose response, biochemical, fluorescence polarization, cherry-picked samples (AID 504725); set-up: species or system Human gammaherpesvirus 8;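 note: fluorescence polarization of a labeled DNA duplex reporting LANA DNA binding; potency is for inhibitors that block LANA binding to the DNA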
[22] = target: T4, Cytochrome P450 2D6 (Homo sapiens, UniProt P10635);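 note: CYP2D6 member of a cytochrome P450 panel assay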
[23] = target: T4, Cytochrome P450 2D6; remark: listed apart in the source

Melanin-concentrating hormone receptor 1, sequence (Q99705 whole entry): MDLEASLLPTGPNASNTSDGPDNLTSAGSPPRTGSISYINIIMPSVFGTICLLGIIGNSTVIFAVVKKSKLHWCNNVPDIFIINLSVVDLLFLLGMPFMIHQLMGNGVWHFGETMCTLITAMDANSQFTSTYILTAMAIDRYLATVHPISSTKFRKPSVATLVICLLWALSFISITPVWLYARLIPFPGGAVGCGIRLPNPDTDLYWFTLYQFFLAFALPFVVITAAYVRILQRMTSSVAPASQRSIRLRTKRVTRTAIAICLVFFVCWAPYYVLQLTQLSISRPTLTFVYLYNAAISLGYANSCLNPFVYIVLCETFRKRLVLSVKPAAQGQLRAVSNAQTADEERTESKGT
T4 sequence (P10635 whole entry): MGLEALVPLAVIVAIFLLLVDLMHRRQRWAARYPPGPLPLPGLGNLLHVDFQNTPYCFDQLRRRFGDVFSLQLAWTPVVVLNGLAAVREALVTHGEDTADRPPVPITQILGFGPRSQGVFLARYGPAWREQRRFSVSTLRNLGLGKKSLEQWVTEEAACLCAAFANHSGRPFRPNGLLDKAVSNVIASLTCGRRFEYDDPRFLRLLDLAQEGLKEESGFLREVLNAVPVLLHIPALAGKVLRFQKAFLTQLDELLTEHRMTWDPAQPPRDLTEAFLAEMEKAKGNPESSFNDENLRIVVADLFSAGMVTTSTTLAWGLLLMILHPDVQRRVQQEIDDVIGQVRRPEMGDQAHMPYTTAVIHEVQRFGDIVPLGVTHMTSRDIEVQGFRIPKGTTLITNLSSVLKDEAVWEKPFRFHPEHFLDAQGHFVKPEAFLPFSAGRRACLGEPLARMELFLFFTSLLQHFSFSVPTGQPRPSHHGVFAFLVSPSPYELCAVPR
Induced myeloid leukemia cell differentiation protein Mcl-1, sequence (Q07820 whole entry): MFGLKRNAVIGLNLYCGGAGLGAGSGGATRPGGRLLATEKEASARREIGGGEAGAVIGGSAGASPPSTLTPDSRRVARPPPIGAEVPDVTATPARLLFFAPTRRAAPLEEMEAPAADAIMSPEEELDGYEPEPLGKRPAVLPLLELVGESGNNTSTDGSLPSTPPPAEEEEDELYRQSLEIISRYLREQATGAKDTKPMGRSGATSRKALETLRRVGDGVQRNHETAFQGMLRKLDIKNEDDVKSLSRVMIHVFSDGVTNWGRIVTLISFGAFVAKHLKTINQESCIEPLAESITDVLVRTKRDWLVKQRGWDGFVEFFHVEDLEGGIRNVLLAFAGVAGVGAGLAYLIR
Heat shock cognate 71 kDa protein, sequence (P11142 whole entry): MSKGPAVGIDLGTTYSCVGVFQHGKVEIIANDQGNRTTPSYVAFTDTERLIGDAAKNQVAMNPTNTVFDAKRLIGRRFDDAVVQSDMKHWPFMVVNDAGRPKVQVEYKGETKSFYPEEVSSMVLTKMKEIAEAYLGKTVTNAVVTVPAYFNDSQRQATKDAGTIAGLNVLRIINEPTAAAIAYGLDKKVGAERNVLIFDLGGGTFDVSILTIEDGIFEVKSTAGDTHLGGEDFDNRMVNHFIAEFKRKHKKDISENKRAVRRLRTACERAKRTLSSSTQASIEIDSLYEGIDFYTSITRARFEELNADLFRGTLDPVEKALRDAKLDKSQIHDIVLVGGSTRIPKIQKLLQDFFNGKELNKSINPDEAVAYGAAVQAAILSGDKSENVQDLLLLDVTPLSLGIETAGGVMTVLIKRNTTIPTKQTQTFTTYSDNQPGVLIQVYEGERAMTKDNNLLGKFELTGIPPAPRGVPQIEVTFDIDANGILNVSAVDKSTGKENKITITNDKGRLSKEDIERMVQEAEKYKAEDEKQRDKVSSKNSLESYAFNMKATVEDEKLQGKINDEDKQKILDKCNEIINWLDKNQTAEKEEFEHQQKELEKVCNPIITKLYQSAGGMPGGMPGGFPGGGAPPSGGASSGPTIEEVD
Estrogen receptor beta, sequence (Q92731 whole entry): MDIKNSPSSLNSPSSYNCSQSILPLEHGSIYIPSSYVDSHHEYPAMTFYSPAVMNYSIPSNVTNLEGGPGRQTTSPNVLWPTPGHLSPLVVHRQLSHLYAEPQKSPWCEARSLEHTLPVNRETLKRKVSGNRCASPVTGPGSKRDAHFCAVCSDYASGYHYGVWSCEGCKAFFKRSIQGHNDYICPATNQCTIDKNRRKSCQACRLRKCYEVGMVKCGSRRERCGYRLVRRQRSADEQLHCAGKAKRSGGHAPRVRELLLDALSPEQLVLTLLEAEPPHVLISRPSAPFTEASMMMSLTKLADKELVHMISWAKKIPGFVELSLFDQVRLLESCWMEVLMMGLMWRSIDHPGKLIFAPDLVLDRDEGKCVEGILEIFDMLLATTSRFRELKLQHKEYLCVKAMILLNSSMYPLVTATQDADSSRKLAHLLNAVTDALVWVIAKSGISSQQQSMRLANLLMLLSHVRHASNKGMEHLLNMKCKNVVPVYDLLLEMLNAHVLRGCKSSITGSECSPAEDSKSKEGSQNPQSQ
ORF 73, sequence (O40947 whole entry): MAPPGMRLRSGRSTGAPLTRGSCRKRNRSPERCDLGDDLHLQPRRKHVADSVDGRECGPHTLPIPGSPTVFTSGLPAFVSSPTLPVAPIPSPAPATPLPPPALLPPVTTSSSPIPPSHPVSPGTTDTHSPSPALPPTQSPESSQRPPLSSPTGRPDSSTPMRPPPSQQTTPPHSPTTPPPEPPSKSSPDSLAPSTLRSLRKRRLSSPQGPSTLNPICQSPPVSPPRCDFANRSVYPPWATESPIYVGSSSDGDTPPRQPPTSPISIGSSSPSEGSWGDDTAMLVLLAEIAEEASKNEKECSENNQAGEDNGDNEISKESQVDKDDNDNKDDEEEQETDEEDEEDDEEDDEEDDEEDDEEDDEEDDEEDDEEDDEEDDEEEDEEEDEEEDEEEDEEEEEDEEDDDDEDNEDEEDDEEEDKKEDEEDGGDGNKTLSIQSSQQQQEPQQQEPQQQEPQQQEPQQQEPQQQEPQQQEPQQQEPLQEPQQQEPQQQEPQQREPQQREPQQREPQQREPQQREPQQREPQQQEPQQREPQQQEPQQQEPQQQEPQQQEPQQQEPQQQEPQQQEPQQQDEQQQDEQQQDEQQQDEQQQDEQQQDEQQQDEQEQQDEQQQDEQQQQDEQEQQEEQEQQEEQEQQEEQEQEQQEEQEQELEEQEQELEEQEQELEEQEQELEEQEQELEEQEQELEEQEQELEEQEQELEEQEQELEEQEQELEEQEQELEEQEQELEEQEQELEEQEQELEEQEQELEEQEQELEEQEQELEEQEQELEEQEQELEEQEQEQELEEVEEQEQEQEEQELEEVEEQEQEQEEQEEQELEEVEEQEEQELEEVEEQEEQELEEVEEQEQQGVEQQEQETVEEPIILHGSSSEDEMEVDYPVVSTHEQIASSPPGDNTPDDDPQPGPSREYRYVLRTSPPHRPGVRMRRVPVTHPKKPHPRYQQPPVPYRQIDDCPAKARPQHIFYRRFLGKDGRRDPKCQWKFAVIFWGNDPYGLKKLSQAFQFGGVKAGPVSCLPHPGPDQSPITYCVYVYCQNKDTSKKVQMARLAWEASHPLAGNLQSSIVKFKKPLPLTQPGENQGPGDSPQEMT
Heat shock 70 kDa protein 1A, sequence (P0DMV8 whole entry): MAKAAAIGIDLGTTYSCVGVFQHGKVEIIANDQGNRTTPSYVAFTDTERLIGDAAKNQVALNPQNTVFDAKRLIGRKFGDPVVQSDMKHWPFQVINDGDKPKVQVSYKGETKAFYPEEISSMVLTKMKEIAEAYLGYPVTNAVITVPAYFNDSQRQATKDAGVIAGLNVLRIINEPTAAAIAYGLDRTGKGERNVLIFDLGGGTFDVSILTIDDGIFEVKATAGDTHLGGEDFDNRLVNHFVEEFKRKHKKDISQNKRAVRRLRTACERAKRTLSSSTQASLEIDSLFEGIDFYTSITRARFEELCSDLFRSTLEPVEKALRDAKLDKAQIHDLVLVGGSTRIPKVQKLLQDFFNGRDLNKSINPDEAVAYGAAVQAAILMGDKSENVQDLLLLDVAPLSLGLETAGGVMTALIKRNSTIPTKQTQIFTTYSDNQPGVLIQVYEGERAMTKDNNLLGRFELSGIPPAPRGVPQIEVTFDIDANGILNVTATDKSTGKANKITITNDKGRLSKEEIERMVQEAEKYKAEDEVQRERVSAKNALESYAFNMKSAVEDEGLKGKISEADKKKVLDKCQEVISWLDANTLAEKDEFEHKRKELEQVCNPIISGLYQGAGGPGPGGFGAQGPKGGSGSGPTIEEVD
Glyceraldehyde-3-phosphate dehydrogenase, sequence (P04406 whole entry): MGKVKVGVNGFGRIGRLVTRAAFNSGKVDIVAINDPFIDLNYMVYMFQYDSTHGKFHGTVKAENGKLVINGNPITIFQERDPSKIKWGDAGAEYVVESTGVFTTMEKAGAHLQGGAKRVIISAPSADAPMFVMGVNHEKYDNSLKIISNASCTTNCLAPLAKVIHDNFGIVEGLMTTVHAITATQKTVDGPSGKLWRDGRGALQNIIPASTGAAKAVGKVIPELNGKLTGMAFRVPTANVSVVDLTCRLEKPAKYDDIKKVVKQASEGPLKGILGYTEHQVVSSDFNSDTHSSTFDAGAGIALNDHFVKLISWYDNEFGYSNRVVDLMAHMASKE

With `O=C(O)C1Nc2c(C(=O)N3CCOCC3)cccc2C2C=CCC12` (centres undefined) the EC50 [1] was 45.1 µM (active), the IC50 [2] was > 100 µM (not active) and the EC50 [3] was 21.3 µM (inconclusive). The IC50 [4] was > 100 µM (not active), the IC50 [5] was 15.9 µM (active) and the IC50 [6] was > 100 µM (not active). The IC50 [7] was 0.0407 µM (not active) and the IC50 [8] was 2.78 µM (not active).
With `Cc1ccc(OCCn2c(NC(=O)c3ccco3)nc3ccccc32)cc1` the EC50 [9] was 13.1 µM (active), the EC50 [10] was 3.15 µM (active) and the EC50 [11] was 1.6 µM (active). The IC50 [12] was 4.87 µM (active), the EC50 [13] was 15.8 µM (active) and the EC50 [14] was 10.3 µM (active). The IC50 [15] was > 20 µM (inactive), the EC50 [16] was > 20 µM (inactive) and the IC50 [17] was 2.41 µM (active). The IC50 [18] was > 20 µM (inactive) and the EC50 [19] was 3.87 µM (active).
In the case of `CC(C)c1ccc(-n2ncc(Cl)c(Oc3ccc(Cl)c(Cl)c3)c2=O)cc1`, the IC50 [20] is reported as 15.9 µM (inactive).
With `COc1ccc(Oc2c(Cl)cnn(-c3cc(C)ccc3C)c2=O)cc1` the IC50 [20] was 12.2 µM (inactive).
In the case of `OCCN(CCO)c1nc(N2CCCCC2)c2nc(N(CCO)CCO)nc(N3CCCCC3)c2n1` [DIPYRIDAMOLE], the AC50 [21] is reported as 8.87 µM (active), the AC50 [22] is reported as 10 µM (active) and the AC50 [23] is reported as “inactive”.
